Assay results published in ChEMBL document CHEMBL1201862, “PubChem BioAssay data set” (2004).
The source made the active and inactive calls.

Legend:
[1] = biological target: T1, Exodeoxyribonuclease V (Escherichia coli (strain K12), UniProt P04993+P07648+P08394); assay: E. coli RecBCD inhibitors, dose response, counter-screen for AddAB inhibitor project, absorbance, V66 E. coli, mutant T4 phage (AID 492957); type: functional, cell-based, Escherichia coli str. K-12 substr. MG1655
T1 sequence (P04993 whole entry): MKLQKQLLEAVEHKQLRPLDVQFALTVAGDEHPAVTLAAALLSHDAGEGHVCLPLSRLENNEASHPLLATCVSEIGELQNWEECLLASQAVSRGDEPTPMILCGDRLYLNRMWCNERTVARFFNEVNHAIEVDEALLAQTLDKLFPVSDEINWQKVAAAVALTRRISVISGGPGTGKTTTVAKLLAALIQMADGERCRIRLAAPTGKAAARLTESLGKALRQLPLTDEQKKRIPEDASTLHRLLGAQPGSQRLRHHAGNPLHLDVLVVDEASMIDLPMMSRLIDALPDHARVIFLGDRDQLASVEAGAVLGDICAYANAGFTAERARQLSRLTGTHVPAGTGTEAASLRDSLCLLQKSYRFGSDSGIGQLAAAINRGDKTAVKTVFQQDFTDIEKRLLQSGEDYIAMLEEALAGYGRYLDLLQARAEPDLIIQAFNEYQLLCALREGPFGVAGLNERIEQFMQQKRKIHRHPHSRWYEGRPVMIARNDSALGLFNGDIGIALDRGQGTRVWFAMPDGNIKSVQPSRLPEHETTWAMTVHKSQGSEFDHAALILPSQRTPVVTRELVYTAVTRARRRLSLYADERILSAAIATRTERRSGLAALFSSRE
T1 sequence (P07648 whole entry): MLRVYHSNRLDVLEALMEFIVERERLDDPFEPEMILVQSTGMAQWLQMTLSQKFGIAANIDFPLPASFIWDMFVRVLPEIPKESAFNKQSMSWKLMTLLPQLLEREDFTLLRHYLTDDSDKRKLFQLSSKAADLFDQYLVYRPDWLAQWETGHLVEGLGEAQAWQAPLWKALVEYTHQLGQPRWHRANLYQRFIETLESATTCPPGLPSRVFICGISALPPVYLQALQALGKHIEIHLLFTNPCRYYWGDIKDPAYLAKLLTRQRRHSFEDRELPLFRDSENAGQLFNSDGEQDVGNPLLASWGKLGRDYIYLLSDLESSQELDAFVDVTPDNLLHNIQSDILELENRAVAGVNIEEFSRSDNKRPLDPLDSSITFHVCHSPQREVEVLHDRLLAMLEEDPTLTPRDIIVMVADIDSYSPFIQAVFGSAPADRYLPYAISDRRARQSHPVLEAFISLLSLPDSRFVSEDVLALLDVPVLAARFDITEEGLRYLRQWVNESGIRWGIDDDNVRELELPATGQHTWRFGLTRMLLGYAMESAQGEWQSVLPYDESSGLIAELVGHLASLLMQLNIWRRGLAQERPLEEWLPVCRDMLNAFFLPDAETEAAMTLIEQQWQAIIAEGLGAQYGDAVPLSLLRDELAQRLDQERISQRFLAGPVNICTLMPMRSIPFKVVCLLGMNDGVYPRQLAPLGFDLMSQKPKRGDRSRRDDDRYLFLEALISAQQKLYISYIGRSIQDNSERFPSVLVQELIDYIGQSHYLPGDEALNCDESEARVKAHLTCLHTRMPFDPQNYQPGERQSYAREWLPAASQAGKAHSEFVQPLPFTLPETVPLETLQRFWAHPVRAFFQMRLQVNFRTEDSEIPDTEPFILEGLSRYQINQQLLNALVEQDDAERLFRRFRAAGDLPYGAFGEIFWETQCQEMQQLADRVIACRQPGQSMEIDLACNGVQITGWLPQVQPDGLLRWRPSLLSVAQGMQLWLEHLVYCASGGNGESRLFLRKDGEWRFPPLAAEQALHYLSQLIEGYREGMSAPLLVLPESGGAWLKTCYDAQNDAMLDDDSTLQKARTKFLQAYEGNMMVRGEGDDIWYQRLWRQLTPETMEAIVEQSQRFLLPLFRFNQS
T1 sequence (P08394 whole entry): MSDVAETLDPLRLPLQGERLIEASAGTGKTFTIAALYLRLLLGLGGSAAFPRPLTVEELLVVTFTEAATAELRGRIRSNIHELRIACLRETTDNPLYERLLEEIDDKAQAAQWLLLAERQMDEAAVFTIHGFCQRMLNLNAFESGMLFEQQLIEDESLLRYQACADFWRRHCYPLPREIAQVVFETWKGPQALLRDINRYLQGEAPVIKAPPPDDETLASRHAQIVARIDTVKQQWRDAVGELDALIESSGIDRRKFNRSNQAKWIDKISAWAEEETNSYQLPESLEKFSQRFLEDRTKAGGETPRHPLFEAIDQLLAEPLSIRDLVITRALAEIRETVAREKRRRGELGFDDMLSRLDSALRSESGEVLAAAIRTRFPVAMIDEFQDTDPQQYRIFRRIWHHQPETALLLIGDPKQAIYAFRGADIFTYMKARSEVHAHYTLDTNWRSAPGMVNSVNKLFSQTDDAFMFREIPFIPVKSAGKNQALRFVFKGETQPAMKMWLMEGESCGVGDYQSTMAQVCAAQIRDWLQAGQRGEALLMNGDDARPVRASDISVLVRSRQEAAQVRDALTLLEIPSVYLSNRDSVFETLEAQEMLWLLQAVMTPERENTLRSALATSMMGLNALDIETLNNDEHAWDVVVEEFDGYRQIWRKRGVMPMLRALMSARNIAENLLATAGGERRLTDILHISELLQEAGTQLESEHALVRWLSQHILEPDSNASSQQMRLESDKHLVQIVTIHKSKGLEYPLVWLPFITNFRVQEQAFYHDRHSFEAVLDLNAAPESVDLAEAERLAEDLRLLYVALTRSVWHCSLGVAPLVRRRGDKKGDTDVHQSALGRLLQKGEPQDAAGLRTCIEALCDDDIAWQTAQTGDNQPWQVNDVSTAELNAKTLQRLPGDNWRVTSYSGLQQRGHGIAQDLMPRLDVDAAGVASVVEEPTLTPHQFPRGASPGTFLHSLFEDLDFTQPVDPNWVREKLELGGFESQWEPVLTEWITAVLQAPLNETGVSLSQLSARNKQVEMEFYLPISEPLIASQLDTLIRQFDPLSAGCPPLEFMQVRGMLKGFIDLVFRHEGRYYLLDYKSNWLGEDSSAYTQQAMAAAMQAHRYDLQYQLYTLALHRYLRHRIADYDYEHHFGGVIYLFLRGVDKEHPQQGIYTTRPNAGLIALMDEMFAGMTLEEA

[2] = biological target: Protein disulfide-isomerase A6 (Homo sapiens, UniProt Q15084); assay: inhibitors of ERp5-mediated insulin aggregation, dose response, biochemical, turbidity, absorbance 650 nm, cherry-picked samples (AID 720566)
Sequence of Protein disulfide-isomerase A6 (Q15084 whole entry): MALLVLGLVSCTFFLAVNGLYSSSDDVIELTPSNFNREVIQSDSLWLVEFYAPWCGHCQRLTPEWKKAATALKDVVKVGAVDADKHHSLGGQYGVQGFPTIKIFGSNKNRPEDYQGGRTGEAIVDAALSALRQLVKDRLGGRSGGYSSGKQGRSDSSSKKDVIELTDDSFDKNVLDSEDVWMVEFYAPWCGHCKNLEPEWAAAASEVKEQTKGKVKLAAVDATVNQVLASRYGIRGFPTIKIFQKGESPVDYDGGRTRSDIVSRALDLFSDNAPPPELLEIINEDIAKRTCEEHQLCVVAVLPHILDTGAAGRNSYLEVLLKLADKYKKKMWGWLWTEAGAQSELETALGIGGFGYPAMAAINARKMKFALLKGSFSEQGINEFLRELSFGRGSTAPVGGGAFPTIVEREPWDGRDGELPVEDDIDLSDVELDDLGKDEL

Row | Compound | IC50 [1] | AC50 [2]
1 | O=C1c2ccccc2C(=O)c2[nH]c(O)nc21 | > 119 µM (inactive) | –
2 | COC(=O)c1cc(C)nc2c1C(=O)C(=O)C=C2N1CCOCC1 | – | 45.1 µM (active)
